The values that follow come from article PMC7606276, “The Antibacterial Effects of New N-Alkylpyridinium Salts on Planktonic and Biofilm Bacteria” (Frontiers in Microbiology, 2020).

For one assay, the system named is CHO-K1 cells. The assay can be described thus: MTT cell viability assay on CHO-K1 cells. The assay is classed as cell-based, Chinese hamster. The settings on record: Cricetulus griseus, 24 h exposure. On the procedure:
Standard MTT assay (3-(4,5-dimethylthiazol-2-yl)-2,5-diphenyltetrazolium bromide; Sigma-Aldrich, Prague, Czechia) was used according to the manufacturer’s protocol on the CHO-K1 (Chinese hamster ovary, ECACC, Salisbury, United Kingdom) in order to compare the effect of different compounds within the series. The cells were cultured according to ECACC recommended conditions and seeded in a density of 8000 per well as described previously ([Soukup et al., 2020]). […] Thereafter, CHO-K1 cells were exposed to two-fold diluted series A, B, C or ten-fold diluted sodium hypochlorite for 24 h. Then the medium was replaced by a medium containing 0.5 mg/ml of MTT and the cells were allowed to produce formazan for approximately 3 h under surveillance. Thereafter, the medium with MTT was removed and crystals of formazan were dissolved in DMSO (100 μl/well). Cell viability was assessed spectrophotometrically by the amount of formazan produced. The absorbance was measured at 570 nm on Synergy HT (BioTek, Winooski, VT, United States). IC50 (half maximal inhibitory concentration) was then calculated from the control – subtracted triplicates using non-linear regression (four parameters) by GraphPad Prism 5.03 or 7.03 software (GraphPad Software Inc., San Diego, CA, United States). Final IC50 and SEM (standard error of the mean) values were obtained as a mean of three independent measurements.
On the technique in general: Tetrazolium dyes change colour on reduction, which living cells bring about.

Assay [1] concerns E. faecalis biofilms on titanium surface. The assay can be described thus: Biofilm susceptibility assay, live/dead staining CLSM. The settings on record: 250 μM. The assay is classed as cell-based, Enterococcus faecalis. The protocol: To grow the biofilms, an overnight culture of E. faecalis (average viable bacterial concentration of 1 × 10^8 CFU/ml) was diluted 100-fold in BHI. E. faecalis biofilms were formed on titanium radial disks (commercially pure titanium, grade 2) with 7 mm diameter and 1 mm thickness. Prior to the experiments all disks were sandblasted (FerroEcoBlast Europe; Microblast ceramic beads B120) to expose fresh titanium surface, cleaned in 70% ethanol and autoclaved at 134°C for 20 min. The biofilms were grown for 3 days at 37°C ± 1°C without shaking or changing of media to achieve a surface coverage of approximately 25% and a surface bacterial density of ∼1.5 × 10^11 bacteria […]. Biofilms grown on a titanium surface were exposed to 1.5 ml of A14, B14, and C14 dissolved in BHI for 1, 3, and 60 min. After treatment the individual disks were rinsed with saline solution to remove QACs as well as unattached bacteria. In laser treated biofilms samples were treated with QACs for 1 min followed by 10 s of Er:YAG – SSP laser treatment. The LightWalker Er:YAG (Fotona, Ljubljana, Slovenia) was set with the following parameters: laser wavelength 2940 nm; contact handpiece H14, Flat Sweeps fiber tip 400/14 positioned 5 mm above the biofilm disk, energy 20 mJ, frequency 15 Hz, water off, air off, single pulse modality – SSP (super short pulse – 50 μs). The titanium disks with their biofilm were positioned at the bottom of cylindrical irrigation system (7.5 mm diameter and 2 cm high) in the presence of 1.5 ml of either saline or the QAC dissolved in BHI. The antibacterial concentration was 250 μM which was the highest soluble QAC concentration in BHI broth. The rinsed biofilms were stained with 5 μL of premixed saline-diluted Syto 9 and propidium iodide stock solutions (1: 300) from LIVE/DEAD^TM BacLight^TM Bacterial Viability Kit L7012 (Thermo Fisher Scientific, Eugene, OR, United States). After 5 min of incubation in the dark the samples were observed by fluorescence microscope Zeiss Axio Observer Z1 equipped with confocal unit LSM 800 (CLSM). Z-stacks and tiles were taken at 100× or 20× magnification at three randomly selected view fields. Image acquisition and control of the microscope were performed with ZEN 2.3 (ZEISS GmbH, Germany). For the 100× magnification, blue 488 nm and yellow 561 nm lasers were set to 1% intensity, GaAsP PMT detectors to 700 V, pinhole to 71 μm, and the size of the acquired 8-bit images was 3476 × 3476 pixels. For the 20× magnification, blue 488 nm and yellow 561 nm lasers were set to 0.85% intensity, GaAsP PMT detectors to 700 V, pinhole to 50 μm and the size of acquired 8-bit images was 1306 × 1306 pixels. The typical Z-step of the Z-stack was 1 μm for 100× magnification and 3.26 μm for 20× magnification. The images were composed of four different view fields. A custom script was written (Image J) and used to evaluate the effect of treatment on the fraction of dead cells and biofilm surface coverage.

In general, IC50 refers to the midpoint of a concentration-inhibition curve. Turning to `CCCCCCCCCCCCCC[n+]1ccccc1` [Compound A14], the IC50 with CHO-K1 cells worked out at 24.7 ± 0.2 µM. For the same compound, the “biofilm surface coverage change during the treatment” value in assay [1] (1, 3 and 60 min of treatment) was “did not change significantly”. In assay [1] (after 60 min of treatment), the “proportion of live cells in biofilm” value is reported as 18%.
